Entries after “also recorded” stand apart in the source; their conditions may differ.
Test system: primary human neutrophils
Assay type: cell-based
Method: (§1) Each channel was used of one of four different conditions under investigation: 1) Media control, 2) uniform chemo-attractant, 3) chemo-attractant gradient and 4) chemo-attractant gradient with inhibitor. For conditions 1 and 3 each channel network was wick-filled with EGM2MV cell culture media via the source input port. For condition 2 the channel network was wick-filled with EGM2MV cell culture media containing 10 nM formyl-Met-Leu-Phe (fMLP, Sigma-Aldrich). For condition 4 the channel network was wick-filled with EGM2MV cell culture media containing 5 μM Latrunculin B (Sigma-Aldrich). Next, for conditions 3 and 4, a 1.2 μL drop of 1 μM fMLP was added to the source input using a handheld pipette. For condition 4 the fMLP solution also contained Latrunculin B at the same concentration as the media to ensure a uniform concentration of the inhibitor during the study. This volume flowed into the source volume via passive pumping. Lastly, for all four conditions, a 1.5 μL drop of freshly isolated primary neutrophils at roughly at a concentration of roughly 5,000 cells/μL were added to the cell addition port.
as §1, with “Human neutrophil cell culture media and chemo-attractant solution were prepared using conventional protocols. (See, Nuzzi P A at al., Analysis of neutrophil chemotaxis, Methods in Molecular Biology 370:23-26, 2007). Primary human neutrophils were acquired from donors under approved protocol. (See University of Wisconsin Institutional Review Board and National Institutes of Health Protection concerning protection of human subjects regulations). Four channel networks in a polystyrene device were prepared. Each” for “Each”, “used to test” for “used of”, “different conditions:” for “different conditions under investigation:”

With formyl-Met-Leu-Phe [fMLP] the “direction of displacement vectors of cells” value was “slight preference for migrating up the channel; also recorded: strong preference for migrating in the direction of increasing concentration of the gradient” and the “mean total displacement of cells” value was “migrate further; also recorded: migrated further still”.
`C/C1=C/C(=O)O[C@@H]2C[C@@H](CC[C@H](C)/C=C\CC1)O[C@@](O)([C@@H]1CSC(=O)N1)C2` [Latrunculin B] was tested, and the “direction of displacement vectors of cells (preference for migrating up the fMLP gradient)” value (fMLP gradient with uniform 5 μM Latrunculin B, 52 minutes) was “abolished” and the “mean total displacement of cells (migration up an fMLP gradient)” value (fMLP gradient with uniform 5 μM Latrunculin B, cells tracked over 52 minutes) was “strongly inhibited”.

From patent publication US8377685B2, “Microfluidic device having stable static gradient for analyzing chemotaxis” (priority 2007, dated 2013)
